# Legend:
# Format in all cases: cell-based, rabbit
# [1] = test system: renal proximal tubular cells; assay: Cell density (monolayer protein content) in DCVC-injured RPTC; conditions: for monolayer protein content in injured RPTC: day 1 or day 6 after DCVC, 50 μg/ml
# Experimental: Rabbit renal proximal tubules were isolated using the iron oxide perfusion method and grown in 35-mm tissue culture dishes or 48-well cell culture clusters under improved conditions as previously described (35, 36). The cell culture medium was a 1:1 mixture of DMEM/Ham's F-12 (without D-glucose, phenol red, or sodium pyruvate) supplemented with 15 mM HEPES buffer, 2.5 mM L-glutamine, 1 μM pyridoxine HCl, 15 mM sodium bicarbonate, and 6 mM lactate. Hydrocortisone (50 nM), selenium (5 ng/ml), human transferrin (5 μg/ml), bovine insulin (10 nM), and L-ascorbic acid-2-phosphate (50 μM or 500 μM) were added to fresh culture medium immediately prior to daily media change. L-Ascorbic acid-2-phosphate (AscP) was used due to the fact that L-ascorbic acid is unstable in culture media. AscP is stable in culture media for ≧7 days at 37° C. and, after intracellular dephosphorylation, has the same effect on cultured cells as L-ascorbic acid (13).
# (§1) Confluent monolayers of renal proximal tubular cells (day 6 after seeding) were exposed to 200 μM S-(1,2-dichlorovinyl)-L-cysteine (dissolved in water) for 1.75 hours followed by toxicant removal and addition of fresh culture media. This method produces approximately 50% cell death and loss 24 hours after the exposure. On days 1, 4, and 6 following S-(1,2-dichlorovinyl)-L-cysteine exposure, the ability of the remaining renal proximal tubular cells to regenerate and repair physiological function was monitored as described below. In some experiments, immediately after S-(1,2-dichlorovinyl)-L-cysteine exposure and after daily media change through day 6 after injury, collagen I (0, 5, 15, or 50 μg/ml), collagen IV (0, 5, 15, or 50 μg/ml), laminin (50 μg/ml), or cellular fibronectin (50 μg/ml) was added to the culture media of uninjured and S-(1,2-dichlorovinyl)-L-cysteine-injured renal proximal tubular cells grown in physiological concentrations of AscP. Exogenous collagens I and IV used in this study were triple helical and contained only α1 and α2 chains in conformations similar to those found in the renal basement membrane (3, 25). Laminin was a mixture of biologically active laminin chains found in most epithelial tissues (8, 50) and cellular fibronectin was composed of functional dimers (51).
# Measurement of monolayer protein content over time was used to estimate cell density. On days 1, 4, and 6 after sublethal S-(1,2-dichlorovinyl)-L-cysteine injury, renal proximal tubular cell monolayers were washed with PBS and solubilized in Triton buffer (0.05% Triton X-100, 100 mM Tris-Base, 150 mM NaCl, pH 7.5). Samples were sonicated and protein concentrations determined using the method of Lowry (26) or the bicinchoninic acid microassay according to the manufacturer's instructions (Pierce, Rockford, Ill.).
# [2] = test system: Na^+/K^+-ATPase activity in renal proximal tubular cells; assay: Na^+/K^+-ATPase activity (ouabain-sensitive ATPase); conditions: day 6 after DCVC injury; 50 μg/ml
# Experimental: as §1
# On days 1 and 6 after sublethal S-(1,2-dichlorovinyl)-L-cysteine injury, total ATPase activity was measured using a modification of a previously described procedure (44). Briefly, renal proximal tubular cells cultured in 48-well cell culture clusters were scraped and incubated in dissociation buffer (5 mM HEPES (pH 7.4), 25 mM imidazole, 1% BSA, 0.065% sodium dodecyl sulfate (SDS)) for 10 min. at room temperature and placed on ice. The dissociated renal proximal tubular cells were then diluted 5-fold with additional dissociation buffer minus SDS. Aliquots of dissociated renal proximal tubular cells were combined with fresh ATPase assay buffer (2.54 mM MgCl2, 100 mM NaCl, 10 mM KCl, 5 mM HEPES, 10 U/ml lactate dehydrogenase, 7 U/ml pyruvate kinase, 2.54 mM Na2ATP, 2.54 mM phospho(enol)pyruvate, and 0.5 mM β-NADH). ATPase activity was measured under linear conditions spectrophotometrically as the oxidation of β-NADH to NAD^+ at 37° C. in the absence or presence of ouabain (0.1 mM) at a wavelength of 340 nm. Na^+/K^+-ATPase activity was calculated as total ATPase activity minus ouabain-insensitive ATPase activity.
# Confluent monolayers of renal proximal tubular cells (day 6 after seeding) were exposed to 200 μM S-(1,2-dichlorovinyl)-L-cysteine (dissolved in water) for 1.75 hours followed by toxicant removal and addition of fresh culture media. This method produces approximately 50% cell death and loss 24 hours after the exposure. In some experiments, exogenous collagen IV (50 μg/ml), collagen I (50 μg/ml), or function-stimulating antibodies to collagen-binding integrin subunits α2 or β1 (5 μg/ml) was added daily to the culture media of S-(1,2-dichlorovinyl)-L-cysteine-injured renal proximal tubular cells cultured in the absence of pharmacological concentrations of L-ascorbic acid-2-phosphate. Function-stimulating antibodies to collagen-binding integrin α1 are not commercially available at this time. On days 1 and 6 following S-(1,2-dichlorovinyl)-L-cysteine exposure, active Na^+ transport or Na^+/K^+-ATPase activity, and collagen-binding integrin expression and/or localization in the remaining sublethally injured renal proximal tubular cells was determined as described below.
# Total ATPase activity was measured as described above. […]
# [3] = test system: renal proximal tubular cells; assay: Basal oxygen consumption (QO2), a measure of mitochondrial function
# Experimental: as §1
# On days 1, 4, and 6 after sublethal S-(1,2-dichlorovinyl)L-cysteine injury, renal proximal tubular cells bathed in 37° C. culture medium were gently detached from culture dishes with a rubber policeman and transferred to a 37° C. oxygen consumption (QO2) chamber. Basal renal proximal tubular cells QO2 was measured polarographically using a Clark-type electrode as described previously (36).
# [4] = day 1 after DCVC injury, in presence of exogenous protein
# [5] = day 6 after DCVC injury, 5, 15, 50 μg/ml
# [6] = uninjured RPTC, days 1 or 6, exogenous protein
Substance,monolayer protein content in injured RPTC [1],Na^+/K^+-ATPase activity in injured RPTC [2],"decrease in monolayer cell density [1, 4]","cell density [1, 5]","monolayer cell density in untreated RPTC [1, 6]","decrease in basal QO2 [3, 4]","repair of basal QO2 [3, 5]","basal QO2 in untreated RPTC [3, 6]"
fibronectin,no change,remained inhibited,–,–,–,–,–,–
"collagen I: Rat tail collagen I; triple helical, containing only α1 and α2 chains",no change,remained inhibited,approximately 50%,neither increased cell density nor repair of basal QO2,no effect,approximately 50%,neither increased cell density nor repair of basal QO2,no effect
laminin,no change,remained inhibited,–,–,–,–,–,–

# From patent US7183383B2, “Uses of collagen IV” (The University of Arkansas for Medical Sciences, priority 2002, dated 2007)
